Source: paper PMC4503722, “Novel Phenotypic Outcomes Identified for a Public Collection of Approved Drugs from a Publicly Accessible Panel of Assays” (PLoS ONE, 2015)
Where two headings read alike, the source gives them in different places.

How the values were obtained:
INS-1E cells [1] = experiment: cells; format: cell-based, rat; conditions: for EC50: Rattus norvegicus, INS-1E
INS-1E cells [2] = format: cell-based, rat; conditions: for insulin secretion at low glucose (in words): INS-1E
hGSK3b = molecular target: T1, hGSK3b (Homo sapiens, UniProt P49841); experiment: Cerep LANCE kinase assay hGSK3b (S1 assay 34); format: biochemical; conditions: assay number 34
T1 construct: purchased Cerep (LANCE kinase assay platform, contract assay)
T1 sequence (P49841 whole entry): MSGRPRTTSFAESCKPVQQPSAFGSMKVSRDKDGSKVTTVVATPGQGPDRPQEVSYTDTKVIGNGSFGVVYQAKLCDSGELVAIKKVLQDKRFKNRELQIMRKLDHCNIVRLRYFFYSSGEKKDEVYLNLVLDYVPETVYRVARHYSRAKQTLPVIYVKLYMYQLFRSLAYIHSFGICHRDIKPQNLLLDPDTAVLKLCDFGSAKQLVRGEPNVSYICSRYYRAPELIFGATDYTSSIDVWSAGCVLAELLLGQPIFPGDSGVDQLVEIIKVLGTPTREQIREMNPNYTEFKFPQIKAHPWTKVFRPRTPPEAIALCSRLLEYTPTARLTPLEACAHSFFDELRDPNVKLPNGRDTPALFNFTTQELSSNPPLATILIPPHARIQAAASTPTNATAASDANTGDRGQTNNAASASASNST

hKDR = molecular target: T2, hKDR (Homo sapiens, UniProt P35968); experiment: Cerep LANCE kinase assay hKDR (S1 assay 32); format: biochemical; conditions: assay number 32
T2 construct: purchased Cerep (LANCE kinase assay platform, contract assay)
T2 sequence (P35968 20-1356): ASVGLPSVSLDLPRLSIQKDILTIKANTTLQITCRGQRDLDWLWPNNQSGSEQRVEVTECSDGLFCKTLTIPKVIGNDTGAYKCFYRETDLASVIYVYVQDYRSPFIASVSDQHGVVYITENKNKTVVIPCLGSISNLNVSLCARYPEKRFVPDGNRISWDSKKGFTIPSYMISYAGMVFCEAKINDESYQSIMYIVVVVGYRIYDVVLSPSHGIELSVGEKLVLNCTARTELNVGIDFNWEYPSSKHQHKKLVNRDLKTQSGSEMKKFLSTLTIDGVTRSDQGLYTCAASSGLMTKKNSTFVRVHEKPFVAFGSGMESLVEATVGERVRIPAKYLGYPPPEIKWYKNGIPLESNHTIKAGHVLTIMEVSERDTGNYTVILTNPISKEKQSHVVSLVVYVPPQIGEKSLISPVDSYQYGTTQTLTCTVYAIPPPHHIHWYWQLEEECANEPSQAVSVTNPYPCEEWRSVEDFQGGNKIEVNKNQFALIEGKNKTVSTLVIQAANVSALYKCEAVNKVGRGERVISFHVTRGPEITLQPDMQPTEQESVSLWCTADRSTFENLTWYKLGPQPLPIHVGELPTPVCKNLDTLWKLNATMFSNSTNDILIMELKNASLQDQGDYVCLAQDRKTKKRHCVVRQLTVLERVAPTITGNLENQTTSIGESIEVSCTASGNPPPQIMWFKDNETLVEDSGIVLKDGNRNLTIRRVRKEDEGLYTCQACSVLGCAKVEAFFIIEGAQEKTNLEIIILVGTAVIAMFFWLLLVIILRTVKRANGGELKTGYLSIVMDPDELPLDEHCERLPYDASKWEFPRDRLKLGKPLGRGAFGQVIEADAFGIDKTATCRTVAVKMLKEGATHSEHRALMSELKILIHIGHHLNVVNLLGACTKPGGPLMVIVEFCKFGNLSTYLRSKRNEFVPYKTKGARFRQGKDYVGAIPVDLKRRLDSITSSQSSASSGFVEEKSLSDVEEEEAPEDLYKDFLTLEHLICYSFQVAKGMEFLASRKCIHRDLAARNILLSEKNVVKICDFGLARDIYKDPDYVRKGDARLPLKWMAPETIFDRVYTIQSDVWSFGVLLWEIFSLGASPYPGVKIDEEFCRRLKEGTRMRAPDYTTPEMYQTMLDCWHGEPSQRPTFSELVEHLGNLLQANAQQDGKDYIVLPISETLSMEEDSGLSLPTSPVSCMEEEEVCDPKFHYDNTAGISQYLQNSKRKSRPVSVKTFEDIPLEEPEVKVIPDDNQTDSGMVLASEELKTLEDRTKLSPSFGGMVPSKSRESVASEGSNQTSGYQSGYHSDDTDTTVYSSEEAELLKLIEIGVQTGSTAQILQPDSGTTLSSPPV

[3] = test system: nuclear β-catenin in C2C12 cells; experiment: cells; format: cell-based; conditions: for EC50: Mus musculus, C2C12, Table 2, C2C12, 20 / 20.1 coded, read-out: Wnt pot. EC50
hFLT3 = molecular target: T3, hFLT3 (Homo sapiens, UniProt P36888); experiment: Cerep LANCE kinase assay hFLT3 (S1 assay 35); format: biochemical; conditions: assay number 35
T3 construct: purchased Cerep (LANCE kinase assay platform, contract assay)
T3 sequence (P36888 27-993): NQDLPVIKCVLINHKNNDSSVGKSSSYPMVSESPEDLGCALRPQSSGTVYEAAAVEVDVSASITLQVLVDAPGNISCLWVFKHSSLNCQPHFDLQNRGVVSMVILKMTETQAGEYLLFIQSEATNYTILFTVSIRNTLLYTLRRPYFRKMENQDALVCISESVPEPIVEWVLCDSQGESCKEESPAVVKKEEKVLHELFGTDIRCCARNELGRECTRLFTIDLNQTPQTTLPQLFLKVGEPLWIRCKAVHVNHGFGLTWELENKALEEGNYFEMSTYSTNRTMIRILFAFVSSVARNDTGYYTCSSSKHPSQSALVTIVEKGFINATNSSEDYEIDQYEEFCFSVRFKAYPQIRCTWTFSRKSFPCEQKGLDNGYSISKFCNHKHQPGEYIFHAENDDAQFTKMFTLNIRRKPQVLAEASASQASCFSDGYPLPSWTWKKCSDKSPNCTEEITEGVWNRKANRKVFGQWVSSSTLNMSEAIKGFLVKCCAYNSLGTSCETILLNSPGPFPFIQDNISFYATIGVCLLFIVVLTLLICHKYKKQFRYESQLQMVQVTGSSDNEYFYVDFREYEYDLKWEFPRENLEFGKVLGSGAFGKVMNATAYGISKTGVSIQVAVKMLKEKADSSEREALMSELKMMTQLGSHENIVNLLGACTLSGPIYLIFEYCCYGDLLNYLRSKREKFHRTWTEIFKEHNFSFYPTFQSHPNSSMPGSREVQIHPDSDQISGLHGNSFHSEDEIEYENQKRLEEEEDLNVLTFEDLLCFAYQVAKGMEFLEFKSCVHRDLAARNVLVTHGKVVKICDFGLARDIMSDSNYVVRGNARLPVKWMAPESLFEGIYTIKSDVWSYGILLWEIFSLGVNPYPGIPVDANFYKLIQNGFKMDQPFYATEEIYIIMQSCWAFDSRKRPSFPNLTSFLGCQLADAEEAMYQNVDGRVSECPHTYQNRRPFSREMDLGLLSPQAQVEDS

hp70S6K1 (RPS6KB1) = molecular target: T4, hp70S6K1 (RPS6KB1) (Homo sapiens, UniProt P23443); experiment: Cerep LANCE kinase assay hp70S6K1 (S1 assay 31); format: biochemical; conditions: assay number 31
T4 construct: purchased Cerep (LANCE kinase assay platform, contract assay)
T4 sequence (P23443 whole entry): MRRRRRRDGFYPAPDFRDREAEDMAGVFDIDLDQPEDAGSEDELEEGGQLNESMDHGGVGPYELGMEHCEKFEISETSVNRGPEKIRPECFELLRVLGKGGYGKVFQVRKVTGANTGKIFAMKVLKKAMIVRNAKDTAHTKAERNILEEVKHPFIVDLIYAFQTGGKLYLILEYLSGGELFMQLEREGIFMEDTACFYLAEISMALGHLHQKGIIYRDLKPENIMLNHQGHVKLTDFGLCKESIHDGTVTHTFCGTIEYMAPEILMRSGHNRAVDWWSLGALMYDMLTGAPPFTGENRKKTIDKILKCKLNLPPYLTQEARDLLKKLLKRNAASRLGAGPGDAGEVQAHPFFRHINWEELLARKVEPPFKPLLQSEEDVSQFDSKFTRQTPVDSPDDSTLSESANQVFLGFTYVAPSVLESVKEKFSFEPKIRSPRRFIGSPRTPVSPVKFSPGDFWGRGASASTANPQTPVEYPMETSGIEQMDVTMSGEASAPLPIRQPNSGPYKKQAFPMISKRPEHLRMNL

[4] = test system: alkaline phosphatase (ALP) activity in C2C12 cells; format: cell-based; conditions: assay number 6; concentration response
HeLa cells = experiment: cells; format: cell-based
hJAK2 = molecular target: T5, hJAK2 (Homo sapiens, UniProt O60674); experiment: Cerep LANCE kinase assay hJAK2 (S1 assay 33); format: biochemical; conditions: assay number 33
T5 construct: purchased Cerep (LANCE kinase assay platform, contract assay)
T5 sequence (O60674 whole entry): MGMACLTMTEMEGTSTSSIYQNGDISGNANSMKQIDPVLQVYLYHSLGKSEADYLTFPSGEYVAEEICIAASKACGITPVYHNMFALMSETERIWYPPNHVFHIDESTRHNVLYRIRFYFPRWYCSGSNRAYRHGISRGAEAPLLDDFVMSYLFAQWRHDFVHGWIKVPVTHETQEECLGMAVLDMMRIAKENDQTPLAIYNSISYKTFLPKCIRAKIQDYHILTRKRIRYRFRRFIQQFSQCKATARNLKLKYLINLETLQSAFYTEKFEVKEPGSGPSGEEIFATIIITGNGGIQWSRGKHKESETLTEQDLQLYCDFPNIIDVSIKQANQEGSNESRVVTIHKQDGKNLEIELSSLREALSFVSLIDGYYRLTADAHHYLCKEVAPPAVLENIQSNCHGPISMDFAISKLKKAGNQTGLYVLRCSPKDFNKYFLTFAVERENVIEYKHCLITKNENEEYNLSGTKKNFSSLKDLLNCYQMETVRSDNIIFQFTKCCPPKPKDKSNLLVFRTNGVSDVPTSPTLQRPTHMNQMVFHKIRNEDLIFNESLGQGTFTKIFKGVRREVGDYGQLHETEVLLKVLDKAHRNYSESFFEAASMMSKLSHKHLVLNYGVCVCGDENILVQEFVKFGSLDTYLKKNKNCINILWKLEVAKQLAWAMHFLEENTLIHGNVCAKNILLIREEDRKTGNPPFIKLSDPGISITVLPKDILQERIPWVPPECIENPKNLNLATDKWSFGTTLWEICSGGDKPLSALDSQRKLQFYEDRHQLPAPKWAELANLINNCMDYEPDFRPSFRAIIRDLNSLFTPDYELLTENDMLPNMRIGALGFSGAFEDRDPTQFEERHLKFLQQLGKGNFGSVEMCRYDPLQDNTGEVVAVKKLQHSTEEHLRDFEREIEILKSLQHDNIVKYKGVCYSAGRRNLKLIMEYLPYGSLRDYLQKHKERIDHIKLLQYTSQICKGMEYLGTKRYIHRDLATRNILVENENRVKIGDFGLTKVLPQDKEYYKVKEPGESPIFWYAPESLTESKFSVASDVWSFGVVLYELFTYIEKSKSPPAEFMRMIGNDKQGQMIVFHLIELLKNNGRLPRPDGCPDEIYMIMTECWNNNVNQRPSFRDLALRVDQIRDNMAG

[5] = test system: HCT116 cells treated with a GSK3β inhibitor; experiment: cells; format: cell-based; conditions: Homo sapiens, HCT-116, read-out: HCT-116 (GSK3β) viab. IC50; Table 2; GSK3β inhibitor LY2090314 20 nM; 72 h, Cell TiterGlo; 20 coded
NCI-H716 cells = experiment: cells; format: cell-based, Human; conditions: Homo sapiens, NCI-H716; read-out: GLP1 sec. EC50
HCT116 = experiment: cells; format: cell-based; conditions: Homo sapiens, HCT-116, 72 h, read-out: HCT-116 viab. IC50, Table 2; basal; 72 h, Cell TiterGlo, non-adherent; 20 coded
SW480 = experiment: cells; format: cell-based; conditions: Homo sapiens
[6] = test system: endothelial tube formation in co-cultures of ECFCs and ADSCs treated with VEGF; experiment: cells; format: cell-based, human; conditions: Homo sapiens, Table 2; primary assay tube area; 20 = no response in concentration-response, 20.1 = inactive in single concentration testing; read-out: Anti-Angio IC50
DLD-1 = experiment: cells; format: cell-based; conditions: Homo sapiens, DLD-1, 72 h, Table 2; 72 h, Cell TiterGlo, non-adherent; 20 coded; read-out: DLD-1 viab. IC50
[7] = 5 mM glucose, read-out: insulin secretion EC50
[8] = SW480, 72 h, Table 2, 72 h, Cell TiterGlo, non-adherent, 20 coded, read-out: SW480 viab. IC50
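Wherever 5mMGluc INS1E SecretionMod IC50/EC50 is given: secreted insulin quantified by homogeneous immunoassay.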

Cl.NCC1CCC(C(=O)Oc2ccc(CCC(=O)O)cc2)CC1 (stereo not drawn) [NCGC00164584-03]
5mMGluc_INS1E SecretionMod IC50/EC50 (INS-1E cells [1]; assay number 8, 5 mM glucose): > 33.33 µM | 0.1mMGluc_INS1E SecretionMod Act IC50/EC50 (INS-1E cells [2]; assay number 9, 0.1 mM glucose): > 33.33 µM

CN(C)CCOC(c1ccc(Cl)cc1)c1ccccn1 (stereo not drawn) [NCGC00166141-06]
5mMGluc_INS1E SecretionMod IC50/EC50 (INS-1E cells [1]; assay number 8, 5 mM glucose): 21.3759 µM | 0.1mMGluc_INS1E SecretionMod Act IC50/EC50 (INS-1E cells [2]; assay number 9, 0.1 mM glucose): > 33.33 µM

Nc1ccc2cc3ccc(N)cc3nc2c1 [NCGC00166245-04]
hGSK3b LANCE IC50/EC50 (hGSK3b): > 20 µM | 5mMGluc_INS1E SecretionMod IC50/EC50 (INS-1E cells [1]; assay number 8, 5 mM glucose): 20.6221 µM | hKDR LANCE IC50/EC50 (hKDR): > 20 µM | 0.1mMGluc_INS1E SecretionMod Act IC50/EC50 (INS-1E cells [2]; assay number 9, 0.1 mM glucose): > 33.33 µM | WntCondMedia_bCatenin C2C12 IC50/EC50 ([3]; assay number 5, concentration response): 5.9868 µM | hFLT3 LANCE IC50/EC50 (hFLT3): > 20 µM | hp70S6K1 LANCE IC50/EC50 (hp70S6K1 (RPS6KB1)): > 20 µM | WntCondMedia_Alk Phos C2C12 IC50/EC50 [4]: > 20 µM | Hela CellCycMod PI 2N IC50/EC50 (HeLa cells; assay number 14, 2N): > 10 µM | Hela CellCycMod PI S Phase IC50/EC50 (HeLa cells; assay number 15, S phase): 3.4397 µM | Hela CellCycMod PI 4N IC50/EC50 (HeLa cells; assay number 16, 4N): > 10 µM | Hela CellCycMod PI MI IC50/EC50 (HeLa cells; assay number 17, MI): 2.4689 µM | Hela CellCycMod PI Cell Number IC50/EC50 (HeLa cells; assay number 18, cell number): 1.3426 µM | hJAK2 LANCE IC50/EC50 (hJAK2): > 20 µM

CC(C)(Cc1c[nH]c2ccccc12)NCC(O)COc1ccccc1C#N (stereo not drawn) [NCGC00167817-02]
5mMGluc_INS1E SecretionMod IC50/EC50 (INS-1E cells [1]; assay number 8, 5 mM glucose): 15.0119 µM | 0.1mMGluc_INS1E SecretionMod Act IC50/EC50 (INS-1E cells [2]; assay number 9, 0.1 mM glucose): > 33.33 µM

CN(C)CCC[C@@]1(c2ccc(F)cc2)OCc2cc(C#N)ccc21.O=C(O)C(=O)O [NCGC00178555-02]
5mMGluc_INS1E SecretionMod IC50/EC50 (INS-1E cells [1]; assay number 8, 5 mM glucose): 5.447 µM | 0.1mMGluc_INS1E SecretionMod Act IC50/EC50 (INS-1E cells [2]; assay number 9, 0.1 mM glucose): > 33.33 µM

CCCCN1CCCCC1C(=O)Nc1c(C)cccc1C (stereo not drawn) [NCGC00178579-04]
5mMGluc_INS1E SecretionMod IC50/EC50 (INS-1E cells [1]; assay number 8, 5 mM glucose): 27.1706 µM | 0.1mMGluc_INS1E SecretionMod Act IC50/EC50 (INS-1E cells [2]; assay number 9, 0.1 mM glucose): > 33.33 µM

O=C(NN1CCCC1)NS(=O)(=O)c1ccc(Cl)cc1 [NCGC00182989-01]
5mMGluc_INS1E SecretionMod IC50/EC50 (INS-1E cells [1]): 14.8718 µM | 0.1mMGluc_INS1E SecretionMod Act IC50/EC50 (INS-1E cells [2]): > 33.33 µM

CC(C)(C)c1nnc(NS(=O)(=O)c2ccccc2)s1 [NCGC00182991-01]
5mMGluc_INS1E SecretionMod IC50/EC50 (INS-1E cells [1]; assay number 8, 5 mM glucose): 13.1318 µM | 0.1mMGluc_INS1E SecretionMod Act IC50/EC50 (INS-1E cells [2]; assay number 9, 0.1 mM glucose): > 33.33 µM

Oc1ccc(CCNCCCCCCNCCc2ccccc2)cc1O [NCGC00184998-02]
5mMGluc_INS1E SecretionMod IC50/EC50 (INS-1E cells [1]; assay number 8, 5 mM glucose): > 33.33 µM | 0.1mMGluc_INS1E SecretionMod Act IC50/EC50 (INS-1E cells [2]; assay number 9, 0.1 mM glucose): > 33.33 µM

Cl.Nc1c2c(nc3c1CCC3)CCCC2.O [NCGC00263455-01]
5mMGluc_INS1E SecretionMod IC50/EC50 (INS-1E cells [1]; assay number 8, 5 mM glucose): 11.7012 µM | 0.1mMGluc_INS1E SecretionMod Act IC50/EC50 (INS-1E cells [2]; assay number 9, 0.1 mM glucose): > 33.33 µM

Cc1cc2c(OCC(CNC(C)(C)C)OC(=O)c3ccccc3)cccc2[nH]1 (stereo not drawn) [NCGC00263654-01]
5mMGluc_INS1E SecretionMod IC50/EC50 (INS-1E cells [1]; assay number 8, 5 mM glucose): 14.6026 µM | 0.1mMGluc_INS1E SecretionMod Act IC50/EC50 (INS-1E cells [2]; assay number 9, 0.1 mM glucose): > 33.33 µM

COc1ccc(Cl)cc1C(=O)NCCc1ccc(S(=O)(=O)NC(=O)NC2CCCCC2)cc1 [glibenclamide, reference compound]
EC50 (INS-1E cells [1]; read-out: Ins. sec. EC50): 0.002 µM | EC50 (INS-1E cells [1]; read-out: Insulin Secretion): 0.00247 µM | EC50 (INS-1E cells [1]; [7]): 0.0025 µM | insulin secretion at low glucose (in words) (INS-1E cells [2]; 0.1 mM glucose): stimulated insulin secretion at low glucose concentrations | IC50 [5]: > 20 µM | EC50 [3]: > 10 µM | EC50 (NCI-H716 cells): > 10 µM | IC50 (HCT116): > 20 µM | IC50 (SW480; [8]): 2.9 µM | IC50 (SW480; SW480, basal, SW480, read-out: Basal_Viability ATP SW480): 2.92 µM | IC50 [6]: > 10 µM | IC50 (DLD-1): > 20 µM

CCOc1cc(CC(=O)N[C@@H](CC(C)C)c2ccccc2N2CCCCC2)ccc1C(=O)O [repaglinide, reference compound]
EC50 (INS-1E cells [1]; read-out: Ins. sec. EC50): 0.03 µM | EC50 (INS-1E cells [1]; [7]): 0.027 µM | insulin secretion at low glucose (in words) (INS-1E cells [2]; 0.1 mM glucose): stimulated insulin secretion at low glucose concentrations | IC50 [5]: > 20 µM | EC50 [3]: > 10 µM | EC50 (NCI-H716 cells): > 10 µM | IC50 (HCT116): > 20 µM | IC50 (SW480; [8]): > 20 µM | G2/M IC50 / EC50 (HeLa cells; Table 2, HeLa, […], 20 / 20.1 coded): 20.1 | IC50 [6]: > 10 µM | IC50 (DLD-1): > 20 µM
